Reference: patent publication US11312722B2, “Hsp90 inhibitors and uses thereof” (TRUSTEES OF BOSTON UNIVERSITY, priority 2019, dated 2022)
pKd: −log10 of the molar value. In brackets after ≈: the same amount, converted by molar mass. Where two headings read alike, the source gives them in different places.

Legend:
C. neoformans Hsp90 NBD [1] = target: T1, C. neoformans Hsp90 NBD (Cryptococcus neoformans, UniProt J9VVA4); experiment: Protein thermal shift assay, C. neoformans Hsp90 NBD; assay type: binding; conditions: equimolar protein and ligand (10 μM)
Experimental: […]. Using recombinant proteins, assay-independent nanomolar inhibitory constants (Ki) were defined for these compounds. Binding of the compounds to their relevant NBD by thermal shift denaturation assays was also confirmed. Thermal shift assays were performed under saturating ligand conditions, i.e. equimolar concentrations (10 μM) of protein and ligand. As a result, they can provide only qualitative evidence of target binding, but not a quantitative measurement of ligand affinity. […] […]. C. neoformans or C. albicans Hsp90 NBD was combined with equimolar concentrations of the indicated bioactive inhibitors (10 μM) or DMSO control, in technical triplicates. The protein was heated from 25 to 98.6° C. at 0.2° C./5 s in the presence of Sypro Orange dye. All compounds induce an increase in melting temperature relative to the DMSO control, reported as ΔTm.
Protein thermal shift assays. Thermal melting curves were determined using a Protein Thermal Shift Kit (ThermoFisher #4462263), employing a CFX384 Real-Time PCR System (Bio-Rad, C1000 Touch Thermal Cycler). Reactions were performed in a final volume of 10 μL, and contained purified C. albicans or C. neoformans Hsp90 NBD diluted to 250 μg/mL in Buffer HBS-P (GE Healthcare Life Sciences, 0.01 M HEPES pH 7.4, 0.15 M NaCl, 0.005% v/v Surfactant P20) with 10 μM synthetic analog or DMSO control, and 1× Sypro Orange dye solution. Samples were prepared in triplicate in 384-well white plates (Bio-Rad; HSP3805). The instrument was set to melt curve, step 1 (25° C., 2 min) and step 2 (ramp to 98.6° C., increasing 0.2° C. per 5 s cycle). The inflection point of each curve is defined as the protein melting temperature (Tm). Temperature shift, ΔTm, was recorded as the difference between the Tm of the fungal Hsp90 NBD with compound minus Tm of the protein without compound.

[2] = target: Hsp90 (C. albicans whole cell lysate) (Candida albicans (strain SC5314 / ATCC MYA-2876) (Yeast), UniProt P46598); experiment: biochemical; assay type: binding; conditions: Yes/No call
Experimental: (§1) All analogs were assessed for Hsp90 binding affinity using a fluorescence polarization (FP)-based equilibrium competition assay in fungal and human whole cell lysates. […] Using lysates, the relative potency and selectivity for fungal Hsp90 was measured versus the entire ensemble of human Hsp90 isoforms in microplate format using small amounts of test materials. […] Thermal shift assays were performed under saturating ligand conditions, i.e. equimolar concentrations (10 μM) of protein and ligand. As a result, they provided qualitative evidence of target binding, but not a quantitative measurement of ligand affinity. For quantitation, a ligand dissociation constant (Ki) for key compounds was also determined using purified NBDs in FP assays and KD measurements were made by surface plasmon resonance (SPR) using a Biacore instrument. Finally, all analogs were assessed for whole cell antifungal activity against the pathogens C. albicans and C. neoformans.
(§2) FP assays. Whole cell lysates were prepared for FP assays as described previously. Total protein concentration of human and yeast lysates was determined by Bradford assay. […] Serial dilutions of test Hsp90 inhibitors were then assayed under these same conditions to monitor loss of fluorescence polarization as an indicator of probe displacement from Hsp90. […] Titrations of test compound in 25 μL of binding buffer (supplemented with 0.1 mg/mL bovine gamma globulin), were mixed with an equal volume of freshly prepared whole-cell lysate spiked with Cy3-GdA (0.1 nM). Plates were incubated at room temperature for 4.5 h to achieve equilibrium binding for the geldanamycin-based probe. […] Non-linear 4-parameter curve fitting of raw displacement data was performed in GraphPad Prism 5.0 to determine EC50 values as a measure of relative Hsp90-binding affinity. Results were normalized to the value determined for GdA in lysate of each cell type.
(§3) Statistical methods. […] In calculating the error of selectivity determinations, the fractional error of measurements in each species was summed to yield a composite error for the derived ratio.

in vitro = conditions: both, CD-1, mouse; for CLint scaled at 1 μM: liver microsomes; for half-life: microsomes
[3] = mouse liver microsomes; for % remaining at 15 min (NADPH-free): NADPH-free control; for % remaining at 15 min / % remaining at 60 min: with NADPH
[4] = tested on: C. neoformans (Strain H99); experiment: Antifungal sensitivity testing (MIC), C. neoformans H99; assay type: cell-based
Experimental: Color scale bar: no growth inhibition (green) to complete inhibition (black). Each shaded box represents the mean of technical duplicates. The experiment was repeated as an independent biological replicate to confirm results.
Minimum inhibitory concentration (MIC) value for compounds against C. neoformans (Strain H99) was determined in dose-response format, in technical duplicate. Experiments were conducted in RPMI medium at 37° C. for 48 h. Relative viable cell number was measured by standard dye reduction (resazurin) assay.
Yeast strains and culture conditions. Strains used in this study were C. albicans CaCi2 (clinical isolate 2), [58] SC5314, [59] and C. neoformans H99. […] Active cultures were maintained on solid (2% agar) yeast extract peptone (YPD, 1% yeast extract, 2% bactopeptone, 2% glucose) at 4° C. for no more than one month.
Antifungal sensitivity testing. […] Each compound was tested in duplicate in at least two independent experiments. […] Plates were photographed after 24 h of incubation at 30° C.

C. neoformans Hsp90 NBD [5] = target: T1, C. neoformans Hsp90 NBD; experiment: biochemical; assay type: binding; conditions: SPR, 25° C., read-out: Biacore KD
Experimental: SPR assays. For SPR experiments, Hsp90 NBD expression constructs were modified to encode a C-terminal AviTag™ for site-specific on-column biotinylation with a BirA biotin-ligase kit (Avidity LLC; BirA-500). SPR experiments were performed on a Biacore T200 instrument at 25° C. Biotinylated Hsp90 NBD was diluted to 40 μg/mL and immobilized on a streptavidin chip (Sensor Chip SA, GE Healthcare) at a density of 2000-2500 response units (RU) on the biosensor surface. […] Resulting sensorgrams were analyzed with a fit to a 1:1 binding model, using BIA evaluation software.

[6] = target: Hsp90 (C. neoformans whole cell lysate) (Cryptococcus neoformans, UniProt J9VVA4); assay type: binding; conditions: Yes/No call
Experimental: as §1, §2, §3

[7] = Cryptococcus neoformans; read-out: C. neo MIC80
[8] = Cryptococcus neoformans; read-out: C. neo MIC90
[9] = Cryptococcus neoformans, read-out: C. neo MIC80
[10] = Cryptococcus neoformans, read-out: C. neo MIC90

T1 sequence (J9VVA4 1-699): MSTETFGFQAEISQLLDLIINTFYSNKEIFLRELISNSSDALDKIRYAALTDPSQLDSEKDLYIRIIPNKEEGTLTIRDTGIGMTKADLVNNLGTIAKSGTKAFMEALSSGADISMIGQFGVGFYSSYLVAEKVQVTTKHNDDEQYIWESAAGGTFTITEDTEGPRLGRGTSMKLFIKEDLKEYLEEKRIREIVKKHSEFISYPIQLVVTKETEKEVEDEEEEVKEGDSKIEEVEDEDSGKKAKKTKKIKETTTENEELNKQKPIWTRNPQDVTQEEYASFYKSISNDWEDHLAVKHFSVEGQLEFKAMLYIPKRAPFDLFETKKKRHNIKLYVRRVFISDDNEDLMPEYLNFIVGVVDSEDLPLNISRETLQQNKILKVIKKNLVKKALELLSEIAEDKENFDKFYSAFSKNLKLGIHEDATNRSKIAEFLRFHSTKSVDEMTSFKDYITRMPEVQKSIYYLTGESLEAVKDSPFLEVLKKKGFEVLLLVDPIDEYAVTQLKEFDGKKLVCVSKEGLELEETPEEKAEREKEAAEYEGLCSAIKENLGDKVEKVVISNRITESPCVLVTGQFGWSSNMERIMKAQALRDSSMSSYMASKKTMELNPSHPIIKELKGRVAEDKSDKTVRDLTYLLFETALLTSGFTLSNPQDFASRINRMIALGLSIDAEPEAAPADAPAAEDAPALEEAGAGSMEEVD
Hsp90 (C. neoformans whole cell lysate), sequence (J9VVA4 1-699): as above

| C. neoformans NBD ΔTm (C. neoformans Hsp90 NBD [1]) [°C] | Structure (SMILES) | C. alb Active (biochemical) [2] | CLint scaled at 1 μM (in vitro) [mL/min/kg] | half-life (in vitro) [min] | % remaining at 15 min (NADPH-free) [3] [%] | % remaining at 15 min [3] [%] | % remaining at 60 min [3] [%] | MIC80 [4, 7] [µM] | MIC90 [4, 8] [µM] | further results |
| --- | --- | --- | --- | --- | --- | --- | --- | --- | --- | --- |
| 14 | COc1ccc(Cn2nc(-c3ccccc3)cc2Nc2cc(O)cc(O)c2C(=O)N2Cc3ccc(F)cc3C2)cc1 [Compound 29, 4-(5-Fluoro-2,3-dihydro-1H-isoindole-2-carbonyl)-5-((1-((4-methoxyphenyl)methyl)-3-phenyl-1H-pyrazol-5-yl)amino)benzene-1,3-diol] |  |  |  |  |  |  |  |  |  |
| 14 | COc1ccc(Cn2nc(C(C)(C)C)cc2Nc2cc(O)cc(O)c2C(=O)N2Cc3ccccc3C2)cc1 [Compound 49, (2-((3-(tert-Butyl)-1-(4-methoxybenzyl)-1H-pyrazol-5-yl)amino)-4,6-dihydroxyphenyl)(isoindolin-2-yl)methanone] |  |  |  |  |  |  |  |  |  |
| 11 | Cn1nc(-c2ccccc2)cc1Nc1cc(O)cc(O)c1C(=O)N1Cc2ccccc2C1 [Compound 91, 4-(2,3-Dihydro-1H-isoindole-2-carbonyl)-5-((1-methyl-3-phenyl-1H-pyrazol-5-yl)amino]benzene-1,3-diol] | Yes |  |  |  |  |  | > 25 | > 25 |  |
| 11 | CC(C)c1cc(Nc2cc(O)cc(O)c2C(=O)N2Cc3ccccc3C2)n(C)n1 [Compound 100, 4-(2,3-Dihydro-1H-isoindole-2-carbonyl)-5-((1-methyl-3-(propan-2-yl)-1H-pyrazol-5-yl)amino)benzene-1,3-diol] |  |  |  |  |  |  |  |  |  |
| 12 | Cc1ccccc1-c1cc(Nc2cc(O)cc(O)c2C(=O)N2Cc3ccccc3C2)n(C)n1 [Compound 106, 4-(2,3-Dihydro-1H-isoindole-2-carbonyl)-5-((1-methyl-3-(2-methylphenyl)-1H-pyrazol-5-yl)amino)benzene-1,3-diol] | Yes |  |  |  |  |  | < 25 | 25 (≈ 11 µg/mL) | MIC ([4]; Cryptococcus neoformans; C. neoformans H99, RPMI medium, 37° C., 48 h, resazurin): < 10 µM |
| 0 | Cn1nc(-c2ccc(C(C)(C)C)cc2)cc1Nc1cc(O)cc(O)c1C(=O)N1Cc2ccccc2C1 [Compound 127, 5-((3-(4-tert-Butylphenyl)-1-methyl-1H-pyrazol-5-yl)amino)-4-(2,3-dihydro-1H-isoindole-2-carbonyl)benzene-1,3-diol] |  |  |  |  |  |  |  |  |  |

More lines, now with the values behind:

| Structure (SMILES) | C. neoformans NBD ΔTm (C. neoformans Hsp90 NBD [1]) [°C] | C. alb Active (biochemical) [2] | CLint scaled at 1 μM (in vitro) [mL/min/kg] | half-life (in vitro) [min] | % remaining at 15 min (NADPH-free) [3] [%] | % remaining at 15 min [3] [%] | % remaining at 60 min [3] [%] | MIC80 [4, 7] [µM] | MIC90 [4, 8] [µM] | further results |
| --- | --- | --- | --- | --- | --- | --- | --- | --- | --- | --- |
| COc1ccc(Cn2nc(-c3ccccc3)cc2Nc2cc(O)cc(O)c2C(=O)N2Cc3cccc(F)c3C2)cc1 [Compound 27, 4-(4-Fluoro-2,3-dihydro-1H-isoindole-2-carbonyl)-5-((1-((4-methoxyphenyl)methyl)-3-phenyl-1H-pyrazol-5-yl)amino)benzene-1,3-diol] | 12 |  |  |  |  |  |  |  |  |  |
| CC(C)c1ccc(Cn2nccc2Nc2cc(O)cc(O)c2C(=O)N2Cc3ccccc3C2)cc1 [Compound 83, (2,4-Dihydroxy-6-((1-(4-isopropylbenzyl)-1H-pyrazol-5-yl)amino)phenyl)(isoindolin-2-yl)methanone] |  | Yes | 1770 | 3.1 | 109.1 | 3.4 | 1.8 | > 25 | > 25 |  |
| Cc1cccc(-c2cc(Nc3cc(O)cc(O)c3C(=O)N3Cc4cn[nH]c4C3)n(C)n2)c1 [Compound 111, 5-((1-Methyl-3-(3-methylphenyl)-1H-pyrazol-5-yl)amino)-4-(1H,4H,5H,6H-pyrrolo[3,4-c]pyrazole-5-carbonyl)benzene-1,3-diol] |  | Yes | 582 | 9.4 | 115.3 | 20.2 | 1.8 | > 25 | > 25 |  |
| COc1cccc(-c2cc(Nc3cc(O)cc(O)c3C(=O)N3Cc4ccccc4C3)n(C)n2)c1 [Compound 112, 4-(2,3-Dihydro-1H-isoindole-2-carbonyl)-5-((3-(3-methoxyphenyl)-1-methyl-1H-pyrazol-5-yl)amino)benzene-1,3-diol] |  | Yes | 1740 | 3.2 | 99.3 | 3.7 | 0 |  |  | MIC80 [4, 9]: > 25 µM; MIC90 [4, 10]: > 25 µM; pKd (C. neoformans Hsp90 NBD [5]): 7.13 |
| Cn1nc(-c2ccc(C(C)(C)C)cc2)cc1Nc1cc(O)cc(O)c1C(=O)N1Cc2cn[nH]c2C1 [Compound 129, 5-((3-(4-tert-Butylphenyl)-1-methyl-1H-pyrazol-5-yl)amino)-4-(1H,4H,5H,6H-pyrrolo[3,4-c]pyrazole-5-carbonyl)benzene-1,3-diol] |  |  | 847 | 6.4 | 97.9 | 21.1 | 0.5 | > 25 | > 25 | C. neo Active (cells) ([4]; Yes/No call): No; C. neo Active (biochemical) [6]: Yes |
| Cn1nc(-c2ccc(OC(F)(F)F)cc2)cc1Nc1cc(O)cc(O)c1C(=O)N1Cc2cccnc2C1 [Compound 131, 5-((1-Methyl-3-(4-(trifluoromethoxy)phenyl)-1H-pyrazol-5-yl)amino)-4-(5H,6H,7H-pyrrolo[3,4-b]pyridine-6-carbonyl)benzene-1,3-diol] |  |  | 387 |  | 104.1 | 35.5 | 3.9 |  |  | MIC80 [4, 9]: > 25 µM; MIC90 [4, 10]: > 25 µM; C. neo Active (cells) ([4]; Yes/No call): No; pKd (C. neoformans Hsp90 NBD [5]): 6.42 |
| Cn1nc(-c2ccc(OC(F)(F)F)cc2)cc1Nc1cc(O)cc(O)c1C(=O)N1Cc2cn[nH]c2C1 [Compound 132, 5-((1-Methyl-3-(4-(trifluoromethoxy)phenyl)-1H-pyrazol-5-yl)amino)-4-(1H,4H,5H,6H-pyrrolo[3,4-c]pyrazole-5-carbonyl)benzene-1,3-diol] |  |  | 176 |  | 71.7 | 63.0 | 20.6 |  |  | MIC80 [4, 9]: > 25 µM; MIC90 [4, 10]: > 25 µM; C. neo Active (cells) ([4]; Yes/No call): No; pKd (C. neoformans Hsp90 NBD [5]): 6.67 |
